Counter-ions that a name gives are not always drawn.
Columns and labels:
[1] = test system: WKY rats with nephritis induced by rabbit anti-rat glomerular basement membrane antiserum (renal failure stage); test: nephritis-induced renal failure model in rats, blood creatinine level; type: in vivo; settings: for effect to suppress the progress of renal failure / effect to suppress the progress of nephritis (raise in the blood creatinine level): compared with the control group; for effect to suppress the progress of nephritis (raise in the blood creatinine level) / effect to suppress the progress of nephropathy (blood creatinine level): Example 1, FIG. 1; for effect to suppress the progress of nephritis (raise in the blood creatinine level): beraprost sodium 100 μg/kg BID and/or candesartan cilexetil 10 mg/kg OAD; for effect to suppress the progress of nephropathy (blood creatinine level): increased dosage alone: beraprost sodium 300 μg/kg BID or candesartan cilexetil 30 mg/kg OAD, compared with BPS100+candesartan10 group; for blood creatinine level at 7 weeks after induction: started 2 weeks after antiserum
Protocol: After the start of the medication, blood was collected at one week intervals, and blood creatinine level was measured. To 9-week old WKY rats, rabbit anti-rat glomerular basement membrane antiserum was administered to induce nephritis. […] To 9-week old WKY rats, rabbit anti-rat glomerular basement membrane antiserum was administered to induce nephritis. […] At six weeks after the induction, blood creatinine level was measured to assess the progress of renal failure. […] To 9-week old WKY rats, rabbit anti-rat glomerular basement membrane antiserum was administered to induce nephritis. […] After the start of the medication, blood was collected at one week intervals, and blood creatinine level was measured. The data were plotted taking the reciprocal of the blood creatinine level measured for five weeks after the start of the medication along the ordinate and taking the time along the abscissa, and the slope of the regression line was defined as the rate of progress of renal failure of each animal. To 9-week old WKY rats, rabbit anti-rat glomerular basement membrane antiserum was administered to induce nephritis. […] After the start of the medication, blood was collected at one week intervals, and blood creatinine level was measured. The data were plotted taking the reciprocal of the blood creatinine level measured for five weeks after the start of the medication along the ordinate and taking the time along the abscissa, and the slope of the asymptote was defined as the rate of progress of renal failure of each animal. To 9-week old WKY rats, rabbit anti-rat glomerular basement membrane antiserum was administered to induce nephritis. […] After the start of the medication, blood was collected at one week intervals, and blood creatinine level was measured. The data were plotted taking the reciprocal of the blood creatinine level measured for six weeks after the start of the medication along the ordinate and taking the time along the abscissa, and the slope of the asymptote was defined as the rate of progress of renal failure of each animal.

[2] = test system: WKY rats with nephritis induced by rabbit anti-rat glomerular basement membrane antiserum; test: nephritis-induced renal failure model in rats, mortality / survival rate; type: in vivo; settings: Example 7, FIG. 2; candesartan cilexetil 10 mg/kg OAD and/or beraprost sodium 100 μg/kg BID; compared with the control group
Protocol: To 9-week old WKY rats, rabbit anti-rat glomerular basement membrane antiserum was administered to induce nephritis. At two weeks after administering the antiserum, the animals were divided into the following 4 groups and medication was started. • 1) Control Group: 0.5% CMC(OAD)+distilled water (BID), n=11 • 2) Candesartan Group (Comparative Example): candesartan cilexetil 10 mg/kg (OAD)+distilled water (BID), n=11 • 3) BPS Group (Comparative Example): 0.5% CMC(OAD)+beraprost sodium 100 μg/kg (BID), n=11 • 4) Candesartan+BPS Group (this disclosure): candesartan cilexetil 10 mg/kg (OAD)+beraprost sodium 100 μg/kg (BID), n=12

[3] = test system: glomerular nephritis model in rats; settings: Kidney Int 1998, 53(5) 1314-20; cited from earlier work
[4] = test system: patients suffering from diabetic nephropathy; settings: Nephron 2002, 92(4): 788-96; cited from earlier work
[5] = test system: patients suffering from diabetic nephropathy; settings: N Engl J Med 2001, 345(12): 861-9; cited from earlier work
[6] = test system: anti-Thyl-induced nephritis model; settings: Am J Pathol 1993; 142(2): 441-50; cited from earlier work
diabetic nephropathy = settings: compared with blood pressure control by a calcium antagonist; N Engl J Med 2001; 345(12): 851-60; cited from earlier work
[7] = test system: renal dysfunction induced by uninephrectomy and by loading high sodium and high protein; settings: Am J Hypertens 1997 10: 209-16; cited from earlier work
[8] = test system: diabetic nephritis induced by streptozotocin in rats; settings: J Hypertens Suppl 1993; 11 Suppl 5: S208-9; cited from earlier work
[9] = test system: diabetes mellitus model in rats; settings: each drug individually or in combination, versus control group; Am J Hypertens 1997 10: 202-208; cited from earlier work
[10] = Example 4, enalapril maleate 10 mg/kg OAD and/or beraprost sodium 100 μg/kg BID
[11] = Example 4, enalapril maleate 10 mg/kg OAD and/or beraprost sodium 100 μg/kg BID, mean ± S.E.
[12] = Example 4, slope of regression line of reciprocal blood creatinine over five weeks of medication, enalapril maleate 10 mg/kg OAD and/or beraprost sodium 100 μg/kg BID, mean ± S.E.
[13] = Example 6, perindopril erbumine 10 mg/kg OAD and/or beraprost sodium 100 μg/kg BID
[14] = Example 6, slope of reciprocal blood creatinine over six weeks of medication, perindopril erbumine 10 mg/kg OAD and/or beraprost sodium 100 μg/kg BID
[15] = Example 2, during medication, telmisartan 40 mg/kg OAD and/or beraprost sodium 100 μg/kg BID
[16] = Example 2, telmisartan 40 mg/kg OAD and/or beraprost sodium 100 μg/kg BID, mean ± S.E.
[17] = Example 3, losartan 30 mg/kg BID and/or beraprost sodium 100 μg/kg BID
[18] = Example 3, losartan 30 mg/kg BID and/or beraprost sodium 100 μg/kg BID, mean ± S.E.
[19] = Example 5, lisinopril 10 mg/kg OAD and/or beraprost sodium 100 μg/kg BID
[20] = Example 5, lisinopril 10 mg/kg OAD and/or beraprost sodium 100 μg/kg BID, mean ± S.E.
[21] = Example 5, slope of reciprocal blood creatinine over five weeks of medication, lisinopril 10 mg/kg OAD and/or beraprost sodium 100 μg/kg BID, mean ± S.E.

CCOC(=O)[C@H](CCc1ccccc1)N[C@@H](C)C(=O)N1CCC[C@H]1C(=O)O [Enalapril, enalapril maleate]
effect to suppress the progress of renal failure [1, 10]: no difference | blood creatinine level at 6 weeks after induction [1, 11]: 1.83 ± 0.44 mg/dL | rate of progress of renal failure [1, 12]: 0.41 ± 0.04 dL/mg × week

CCC[C@H](N[C@@H](C)C(=O)N1[C@H](C(=O)O)C[C@@H]2CCCC[C@@H]21)C(=O)OCC [Perindopril, perindopril erbumine]
blood creatinine level at 6 weeks after induction [1, 13]: 1.09 ± 0.42 mg/dL | effect to suppress the progress of renal failure [1, 13]: tendency to suppress the progress of renal failure | rate of progress of renal failure [1, 14]: 0.30 ± 0.05 dL/mg × week

CC#CCC(C)[C@H](O)/C=C/[C@@H]1[C@H]2c3cccc(CCCC(=O)[O-])c3O[C@H]2C[C@H]1O.[Na+] (stereo partly drawn) [BPS, beraprost sodium]
mortality rate / survival rate [2]: no difference | urinary protein [3]: decreases urinary protein | urinary protein [4]: decreases urinary protein | effect to suppress the progress of nephritis (raise in the blood creatinine level) [1]: almost no difference | effect to suppress the progress of nephropathy (blood creatinine level) [1]: smaller than that observed in BPS100+candesartan10 group | effect to suppress the progress of renal failure [1, 15]: almost no difference | blood creatinine level at 7 weeks after induction [1, 16]: 1.56 ± 0.76 mg/dL | effect to suppress the progress of renal failure [1, 17]: no difference | blood creatinine level at 6 weeks after induction [1, 18]: 0.93 ± 0.18 mg/dL | effect to suppress the progress of renal failure [1, 10]: no difference | blood creatinine level at 6 weeks after induction [1, 11]: 0.93 ± 0.18 mg/dL | rate of progress of renal failure [1, 12]: 0.32 ± 0.04 dL/mg × week | effect to suppress the progress of renal failure [1, 19]: almost no difference | blood creatinine level at 6 weeks after induction [1, 20]: 1.49 ± 0.59 mg/dL | rate of progress of renal failure [1, 21]: 0.37 ± 0.07 dL/mg × week | blood creatinine level at 6 weeks after induction [1, 13]: 0.93 ± 0.18 mg/dL | effect to suppress the progress of renal failure [1, 13]: tendency to suppress the progress of renal failure | rate of progress of renal failure [1, 14]: 0.29 ± 0.03 dL/mg × week

CCCCc1nc(Cl)c(CO)n1Cc1ccc(-c2ccccc2-c2nn[nH]n2)cc1 [Losartan, losartan]
risk-lowering rate (doubling time of creatinine, dialysis, complicated risk of death) [5]: 16.1% | effect to suppress the progress of renal failure [1, 17]: no difference | blood creatinine level at 6 weeks after induction [1, 18]: 1.94 ± 0.61 mg/dL

CC#CCC(C)[C@H](O)/C=C/[C@@H]1[C@H]2C/C(=C/CCCC(=O)O)C[C@H]2C[C@H]1O (stereo partly drawn) [iloprost]
urinary protein [6]: decreased urinary protein

CCOc1nc2cccc(C(=O)OC(C)OC(=O)OC3CCCCC3)c2n1Cc1ccc(-c2ccccc2-c2nn[nH]n2)cc1 (stereo not drawn) [candesartan, candesartan cilexetil]
mortality rate / survival rate [2]: no difference | effect to suppress the progress of nephritis (raise in the blood creatinine level) [1]: almost no difference | effect to suppress the progress of nephropathy (blood creatinine level) [1]: smaller than that observed in BPS100+candesartan10 group

CCCc1nc2c(C)cc(-c3nc4ccccc4n3C)cc2n1Cc1ccc(-c2ccccc2C(=O)O)cc1 [Telmisartan, telmisartan]
effect to suppress the progress of renal failure [1, 15]: suppressed | blood creatinine level at 7 weeks after induction [1, 16]: 0.93 ± 0.43 mg/dL | blood creatinine level at 8 weeks after induction (1 week after the end of the medication) [1, 16]: 1.18 ± 0.80 mg/dL | progress of renal failure / blood creatinine level at one week after the end of the medication ([1]; Example 2, telmisartan 40 mg/kg OAD with or without beraprost sodium 100 μg/kg BID): renal failure was progressed

CCCCC1=NC2(CCCC2)C(=O)N1Cc1ccc(-c2ccccc2-c2nnn[nH]2)cc1 [irbesartan]
effect of suppressing the progress of diabetic nephropathy (diabetic nephropathy): superior

CCC#CC[C@H](C)[C@H](O)C#C[C@@H]1[C@H]2C/C(=C/COCC(=O)O)C[C@H]2C[C@H]1O [cicaprost]
suppression of renal dysfunction [7]: suppressed | suppression of diabetic nephritis [8]: suppressed | renal function parameters such as urinary protein, damage of renal tissue [9]: less severe

NCCCC[C@H](N[C@@H](CCc1ccccc1)C(=O)O)C(=O)N1CCC[C@H]1C(=O)O [Lisinopril, lisinopril]
effect to suppress the progress of renal failure [1, 19]: almost no difference | blood creatinine level at 6 weeks after induction [1, 20]: 1.20 ± 0.34 mg/dL | rate of progress of renal failure [1, 21]: 0.39 ± 0.08 dL/mg × week

Reference: patent US9546145B2, “Combination therapy for the treatment of chronic renal failure with an angiotensin II receptor antagonist and beraprost” (Toray Industries, Inc., priority 2003, dated 2017)
